What all share (assay type): binding
Experiment [1] deals with TTX monoclonal antibody.
The test system of experiment [2] is TTX monoclonal antibody. The source holds these as a separate data set.
The subject of experiment [3] is TTX monoclonal antibody. This is another data set of the same source.

In brackets after ≈: the same amount, converted by molar mass. Several values for one entry are separate records, joined by “and”; a condition that tells them apart may be missing. Equal values may be shown once.

For the molecule `C/C(=C/C=C/[C@@H](C)C(=O)O)[C@H]1CN[C@H](C(=O)O)[C@H]1CC(=O)O` [DA], the “FLT (a.u.)” value with TTX monoclonal antibody [1] is 503422 a.u. and 504729 a.u. and 501687 a.u. and 506770 a.u. and 503922 a.u. and 508625 a.u.

`NC1=N[C@H](O)[C@H]2[C@H]3O[C@]4(O)O[C@@H]([C@@H](O)[C@@]2(N1)[C@@H]4O)[C@]3(O)CO` [TTX, Tetrodotoxin]: in the experiment with TTX monoclonal antibody [2], the IC50 was found to be 1.713 ng/mL (≈ 5.37 nM). In the experiment on TTX monoclonal antibody [3], the “competitive inhibition rate (1-T/T0)” value came out at 0.3 and the “fluorescence signal value of detection line” value came to 343000 a.u.

Take MC-LR: the “FLT (a.u.)” value in the experiment on TTX monoclonal antibody [1] was 452864 a.u. and 478692 a.u. and 475179 a.u. and 469265 a.u. and 465390 a.u. and 480375 a.u.

Source of the values: patent US20230081132A1 (priority 2021, published 2023).
